Test results reported in patent publication US10604554B2, “Double-acylated GLP-1 derivatives” (Novo Nordisk A/S, priority 2012, dated 2020).
Numbered stars: 1 amine (or outer) side, 2 acyl side, 3 side chain; on linkers, the order of the positions; unused ones are H or OH. Square brackets hold non-standard residues; d marks the D form. Side chains are listed from the residue outwards. Peptide text beside a SMILES is read from it. * marks the point of attachment. Undecanoyl(11-OPh(4-COOH)) = O=C(O)c1ccc(OCCCCCCCCCCC(=O)*)cc1; γGlu = O=C(O)[C@H](CCC(=O)[*:2])N[*:1]; εLys = N[C@@H](CCCCN[*:1])C(=O)[*:2]; Aib = CC(C)(N)C(=O)O

Key:
human GLP-1 receptor [1] = biological target: T1, human GLP-1 receptor (Homo sapiens, UniProt P43220); assay: In vitro potency (CRE luciferase; whole cells); type: cell-based; set-up: EC50/pM (ratio 1% HSA/0% HSA): unit not given here; settings: for EC50/pM (ratio 1% HSA/0% HSA): ratio of EC50 at 1% HSA to EC50 at 0% HSA
T1 construct: expressed in transfected cells; host or cells: BHK cells, clone FCW467-12A/KZ10-1 (parent line BHKTS13), further transfected with CRE luciferase
Method: The purpose of this example is to test the activity, or potency, of the GLP-1 derivatives in vitro. The in vitro potency is the measure of human GLP-1 receptor activation in a whole cell assay.
In vitro potency was determined by measuring the response of human GLP-1 receptor in a reporter gene assay. The assay was performed in a stably transfected BHK cell line that expresses the human GLP-1 receptor and contains the DNA for the cAMP response element (CRE) coupled to a promoter and the gene for firefly luciferase (CRE luciferase). When the human GLP-1 receptor was activated it results in the production of cAMP, which in turn results in the luciferase protein being expressed. When assay incubation was completed the luciferase substrate (luciferin) was added and the enzyme converts luciferin to oxyluciferin and produces bioluminescence. The luminescence was measured and was the readout for the assay.
An increase of the in vitro potency, EC50 value, in the presence of serum albumin indicates an affinity to serum albumin and represents a method to predict a protracted pharmacokinetic profile of the test substance in animal models.
The cells were cultured at 5% CO2 in cell culture medium. They were aliquoted and stored in liquid nitrogen. Before each assay an aliquot was taken up and washed twice in PBS before being suspended at the desired concentration in the assay specific buffer.
The following chemicals were used in the assay: Pluronic F-68 (10%) (Gibco 2404), human serum albumin (HSA) (Sigma A9511), ovalbumin (Sigma A5503), DMEM w/o phenol red (Gibco 11880-028), 1 M Hepes (Gibco 15630), Glutamax 100× (Gibco 35050) and steadylite plus (PerkinElmer 6016757).
1) Cell stocks were thawed in a 37° C. water bath.
2) Cells were washed three times in PBS.
3) The cells were counted and adjusted to 5×10^3 cells/50 μl (1×10^5 cells/ml) in assay medium. A 50 μl aliquot of cells was transferred to each well in the assay plate.
4) Stocks of the test compounds and reference compounds were diluted to a concentration of 0.2 μM in 0% assay buffer for the 0% HSA CRE luciferase assay and 1% assay buffer for the HSA CRE luciferase assay. […] 5) A 50 μl aliquot of compound or blank was transferred in triplicate from the dilution plate to the assay plate. […] 7) The assay plate was removed from the incubator and allowed to stand at room temperature for 15 min. 8) A 100 μl aliquot of steadylite plus reagent was added to each well of the assay plate (reagent was light sensitive). 9) Each assay plate was covered with aluminum foil to protect it from light and shaken for 30 min at room temperature. 10) Each assay plate was read in a Packard TopCount NXT instrument. Calculations and Results
The data from the TopCount instrument were transferred to GraphPad Prism software. The software averages the values for each replicate and performs a non-linear regression.

human GLP-1 receptor [2] = biological target: T1, human GLP-1 receptor; assay: GLP-1 receptor binding (SPA, displacement of 125I-GLP-1); settings: Receptor binding affinity IC50 (low HSA), 0.001% HSA (low albumin)
Method: The purpose of this experiment is to investigate the binding to the GLP-1 receptor of the GLP-1 derivatives, and how the binding is potentially influenced by the presence of albumin. This is done in an in vitro experiment as described below.
In order to test the binding of the derivatives to albumin, the assay was performed with a low concentration of albumin (0.001%—corresponding to the residual amount thereof in the tracer), as well as with a high concentration of albumin (2.0% added). A shift in the binding affinity, IC50, is an indication that the peptide in question binds to albumin, and thereby a prediction of a potential protracted pharmacokinetic profile of the peptide in question in animal models.
Species (in vitro): Hamster
Biological End Point: Receptor Binding
A stable transfected cell line and a high expressing clone were selected for screening. The cells were grown at 5% CO2 in DMEM, 10% FCS, 1% Pen/Strep (Penicillin/Streptomycin) and 1.0 mg/ml of the selection marker G418.
The cells (approx. 80% confluence) were washed twice in PBS and harvested with Versene (aqueous solution of the tetrasodium salt of ethylenediaminetetraacetic acid), following which they were separated by centrifugation at 1000 rpm for 5 min. The cells/cell pellet must be kept on ice to the extent possible in the subsequent steps. The cell pellet was homogenised with Ultrathurrax for 20-30 seconds in a suitable amount of Buffer 1 (depending on the amount of cells, but e.g. 10 ml). The homogenate was centrifuged at 20000 rpm for 15 minutes. The pellet was resuspended (homogenised) in 10 ml Buffer 2 and re-centrifuged. This step was repeated once more. The resulting pellet was resuspended in Buffer 2, and the protein concentration was determined. The membranes were stored at minus 80° C.
Buffer 1:20 mM Na-HEPES+10 mM EDTA, pH 7.4
Buffer 2:20 mM Na-HEPES+0.1 mM EDTA, pH 7.4
Test compounds, membranes, SPA-particles and [^125I]-GLP-1(7-36)NH2 were diluted in assay buffer. 50 ul (micro liter) HSA (“high albumin” experiment containing 2% HSA), or buffer (“low albumin” experiment containing 0.001% HSA) was added to Optiplate, and 25 ul of test compounds were added. 5-10 ug membrane protein/sample was added (50 ul) corresponding to 0.1-0.2 mg protein/ml (to be preferably optimised for each membrane preparation). SPA-particles (Wheatgerm agglutinin SPA beads, Perkin Elmer, # RPNQ0001) were added in an amount of 0.5 mg/well (50 ul). The incubation was started with [^125I]-GLP-1]-(7-36)NH2 (final concentration 0.06 nM corresponding to 49.880 DPM, 25 ul). The plates were sealed with PlateSealer and incubated for 120 minutes at 30° C. while shaking. The plates were centrifuged (1500 rpm, 10 min) and counted in Topcounter.

T1 sequence (P43220 24-463): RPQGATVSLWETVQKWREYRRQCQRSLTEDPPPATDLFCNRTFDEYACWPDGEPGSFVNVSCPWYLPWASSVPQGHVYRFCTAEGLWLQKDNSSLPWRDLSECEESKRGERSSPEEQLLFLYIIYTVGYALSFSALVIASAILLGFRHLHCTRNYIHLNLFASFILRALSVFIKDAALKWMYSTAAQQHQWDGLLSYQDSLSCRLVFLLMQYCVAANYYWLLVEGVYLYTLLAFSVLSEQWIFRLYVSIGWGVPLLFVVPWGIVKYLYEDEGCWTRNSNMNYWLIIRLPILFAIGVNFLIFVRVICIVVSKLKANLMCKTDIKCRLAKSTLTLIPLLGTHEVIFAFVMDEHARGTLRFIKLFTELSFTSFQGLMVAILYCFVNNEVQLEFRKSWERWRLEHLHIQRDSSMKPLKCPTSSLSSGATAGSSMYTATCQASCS

Row | EC50 (human GLP-1 receptor [1]; In vitro potency (CRE luciferase) EC50 (1% HSA), BHK cells, 1% HSA) | SMILES | EC50/pM (ratio 1% HSA/0% HSA) (human GLP-1 receptor [1]) | IC50 (human GLP-1 receptor [2])
1 | – | CC[C@H](C)[C@H](NC(=O)[C@H](Cc1ccccc1)NC(=O)[C@H](CCC(=O)O)NC(=O)[C@H](CCCCNC(=O)[C@@H](N)CCCCNC(=O)CC[C@H](NC(=O)CC[C@H](NC(=O)CCCCCCCCCCOc1ccc(C(=O)O)cc1)C(=O)O)C(=O)O)NC(=O)[C@H](C)NC(=O)[C@H](C)NC(=O)[C@H](CCC(N)=O)NC(=O)[C@H](CCC(=O)O)NC(=O)[C@H](CCC(=O)O)NC(=O)[C@H](CC(C)C)NC(=O)[C@H](Cc1ccc(O)cc1)NC(=O)[C@H](CO)NC(=O)[C@H](CO)NC(=O)[C@@H](NC(=O)[C@H](CC(=O)O)NC(=O)[C@H](CO)NC(=O)[C@@H](NC(=O)[C@H](Cc1ccccc1)NC(=O)[C@@H](NC(=O)CNC(=O)[C@H](CCC(=O)O)NC(=O)C(C)(C)NC(=O)[C@@H](N)Cc1c[nH]cn1)[C@@H](C)O)[C@@H](C)O)C(C)C)C(=O)N[C@@H](CCC(=O)O)C(=O)N[C@@H](Cc1c[nH]c2ccccc12)C(=O)N[C@@H](CC(C)C)C(=O)N[C@H](C(=O)N[C@@H](CCCNC(=N)N)C(=O)NCC(=O)N[C@@H](CCCNC(=N)N)C(=O)N[C@@H](CCCCNC(=O)[C@@H](N)CCCCNC(=O)CC[C@H](NC(=O)CC[C@H](NC(=O)CCCCCCCCCCOc1ccc(C(=O)O)cc1)C(=O)O)C(=O)O)C(=O)N[C@@H](CCC(=O)O)C(=O)O)C(C)C [Example 42, N^ε26-[(2S)-2-amino-6-[[(4S)-4-carboxy-4-[[(4S)-4-carboxy-4-[11-(4-carboxyphenoxy)undecanoylamino]butanoyl]amino]butanoyl]amino]hexanoyl], N^ε37-[(2S)-2-amino-6-[[(4S)-4-carboxy-4-[[(4S)-4-carboxy-4-[11-(4-carboxyphenoxy)undecanoylamino]butanoyl]amino]butanoyl]amino]hexanoyl]-[Aib^8,Glu^22,Glu^30,Arg^34, Lys^37]-GLP-1-(7-37)-peptidyl-Glu] (H-H[Aib]EGTFTSDVSSYLEEQAAK([εLys-γGlu-γGlu-Undecanoyl(11-OPh(4-COOH))])EFIEWLVRGRK([εLys-γGlu-γGlu-Undecanoyl(11-OPh(4-COOH))])E-OH; N-terminus and C-terminus assumed) | 251 | 0.02 nM
2 | – | CC[C@H](C)[C@H](NC(=O)[C@H](Cc1ccccc1)NC(=O)[C@H](CCC(=O)O)NC(=O)[C@H](CCCCNC(=O)[C@@H](N)CCCCNC(=O)CC[C@H](NC(=O)CC[C@H](NC(=O)CCCCCCCCCCOc1ccc(C(=O)O)cc1)C(=O)O)C(=O)O)NC(=O)[C@H](C)NC(=O)[C@H](C)NC(=O)[C@H](CCC(N)=O)NC(=O)[C@H](CCC(=O)O)NC(=O)[C@H](CCC(=O)O)NC(=O)[C@H](CC(C)C)NC(=O)[C@H](Cc1ccc(O)cc1)NC(=O)[C@H](CO)NC(=O)[C@H](CO)NC(=O)[C@@H](NC(=O)[C@H](CC(=O)O)NC(=O)[C@H](CO)NC(=O)[C@@H](NC(=O)[C@H](Cc1ccccc1)NC(=O)[C@@H](NC(=O)CNC(=O)[C@H](CCC(=O)O)NC(=O)C(C)(C)NC(=O)[C@@H](N)Cc1c[nH]cn1)[C@@H](C)O)[C@@H](C)O)C(C)C)C(=O)N[C@@H](CCC(=O)O)C(=O)N[C@@H](Cc1c[nH]c2ccccc12)C(=O)N[C@@H](CC(C)C)C(=O)N[C@H](C(=O)N[C@@H](CCCNC(=N)N)C(=O)NCC(=O)N[C@@H](CCCNC(=N)N)C(=O)N[C@@H](CCCCNC(=O)[C@@H](N)CCCCNC(=O)CC[C@H](NC(=O)CC[C@H](NC(=O)CCCCCCCCCCOc1ccc(C(=O)O)cc1)C(=O)O)C(=O)O)C(=O)O)C(C)C [Example 41, N^ε26-[(2S)-2-amino-6-[[(4S)-4-carboxy-4-[[(4S)-4-carboxy-4-[11-(4-carboxyphenoxy)undecanoylamino]butanoyl]amino]butanoyl]amino]hexanoyl], N^ε37-[(2S)-2-amino-6-[[(4S)-4-carboxy-4-[[(4S)-4-carboxy-4-[11-(4-carboxyphenoxy)undecanoylamino]butanoyl]amino]butanoyl]amino]hexanoyl]-[Aib^8,Glu^22,Glu^30,Arg^34, Lys^37]-GLP-1-(7-37)-peptide] (H-H[Aib]EGTFTSDVSSYLEEQAAK([εLys-γGlu-γGlu-Undecanoyl(11-OPh(4-COOH))])EFIEWLVRGRK([εLys-γGlu-γGlu-Undecanoyl(11-OPh(4-COOH))])-OH; N-terminus and C-terminus assumed) | 260 | 0.03 nM
3 | 0.08 nM | CC[C@H](C)[C@H](NC(=O)[C@H](Cc1ccccc1)NC(=O)[C@H](CCC(=O)O)NC(=O)[C@H](CCCCNC(=O)[C@@H](N)CCCCNC(=O)[C@@H](N)CCCCNC(=O)CC[C@H](NC(=O)CCCCCCCCCCCCC(=O)O)C(=O)O)NC(=O)[C@H](C)NC(=O)[C@H](C)NC(=O)[C@H](CCC(N)=O)NC(=O)CNC(=O)[C@H](CCC(=O)O)NC(=O)[C@H](CC(C)C)NC(=O)[C@H](Cc1ccc(O)cc1)NC(=O)[C@H](CO)NC(=O)[C@H](CO)NC(=O)[C@@H](NC(=O)[C@H](CC(=O)O)NC(=O)[C@H](CO)NC(=O)[C@@H](NC(=O)[C@H](Cc1ccccc1)NC(=O)[C@@H](NC(=O)CNC(=O)[C@H](CCC(=O)O)NC(=O)C(C)(C)NC(=O)[C@@H](N)Cc1c[nH]cn1)[C@@H](C)O)[C@@H](C)O)C(C)C)C(=O)N[C@@H](C)C(=O)N[C@@H](Cc1c[nH]c2ccccc12)C(=O)N[C@@H](CC(C)C)C(=O)N[C@H](C(=O)N[C@@H](Cc1c[nH]cn1)C(=O)NCC(=O)N[C@@H](CCCNC(=N)N)C(=O)N[C@@H](CCCCNC(=O)[C@@H](N)CCCCNC(=O)[C@@H](N)CCCCNC(=O)CC[C@H](NC(=O)CCCCCCCCCCCCC(=O)O)C(=O)O)C(=O)O)C(C)C [Example 3, N^ε26-[(2S)-2-amino-6-[[(2S)-2-amino-6-[[(4S)-4-carboxy-4-(13-carboxytridecanoylamino)butanoyl]amino]hexanoyl]amino]hexanoyl], N^ε37-[(2S)-2-amino-6-[[(2S)-2-amino-6-[[(4S)-4-carboxy-4-(13-carboxytridecanoylamino)butanoyl]amino]hexanoyl]amino]hexanoyl]-[Aib^8,His^34,Lys^37]-GLP-1-(7-37)-peptide] | 10.3 | –
